Source: paper PMC11684029, “Discovery of VU6024578/BI02982816: An mGlu1 Positive Allosteric Modulator with Efficacy in Preclinical Antipsychotic and Cognition Models” (Journal of Medicinal Chemistry, 2024)

Key:
1A2 = biological target: T1, 1A2 (Homo sapiens, UniProt P05177); test: inhibition of cytochrome P450 enzymes; type: in vitro ADME; conditions: human liver microsomes; read-out: CYP450 1A2 inhibition
T1 construct: 0.1 mg/mL human liver microsomes (HLM) and Substrate Mix; from tissue; host or cells: human liver microsomes
T1 sequence (P05177 whole entry): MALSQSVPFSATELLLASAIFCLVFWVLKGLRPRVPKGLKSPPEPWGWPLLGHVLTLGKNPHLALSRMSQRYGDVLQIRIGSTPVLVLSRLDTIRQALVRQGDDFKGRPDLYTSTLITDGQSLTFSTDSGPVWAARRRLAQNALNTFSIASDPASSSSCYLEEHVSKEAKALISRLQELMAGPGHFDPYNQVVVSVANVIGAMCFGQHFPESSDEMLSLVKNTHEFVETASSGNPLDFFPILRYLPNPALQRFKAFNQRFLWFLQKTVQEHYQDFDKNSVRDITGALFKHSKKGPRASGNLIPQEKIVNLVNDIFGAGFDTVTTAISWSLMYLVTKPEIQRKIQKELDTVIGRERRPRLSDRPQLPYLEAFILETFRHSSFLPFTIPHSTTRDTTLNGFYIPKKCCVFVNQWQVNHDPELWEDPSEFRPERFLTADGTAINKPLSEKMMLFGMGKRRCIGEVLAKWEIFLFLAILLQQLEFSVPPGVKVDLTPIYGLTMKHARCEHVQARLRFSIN
Description: (§1) A cocktail of substrates for cytochrome P450 enzymes (1A2: Phenacetin, 10 μM; 2C9: Diclofenac, 5 μM; 2D6: Dextromethorphan, 5 μM; 3A4: Midazolam, 2 μM) were mixed for cocktail analysis. For P450 2C19, the substrate stock (Mephenytoin, 40 μM)and substrate mix were prepared separately for discrete analysis. The positive control for pan-P450 inhibition (miconazole) was included alongside each test compound in analysis.
(§2) A reaction mixture of 100 mM Kpi, pH 7.4, 0.1 mg/mL human liver microsomes (HLM) and Substrate Mix is prepared and aliquoted into a 96-deepwell block. Test compound and positive control (in duplicate) were then added such that the final concentration of test compound ranged from 0.1–30 μM. The plate was vortexed briefly and then preincubated at 37 °C while shaking for 15 min. The reaction was initiated with the addition of NADPH (1 mM final concentration). The incubation continued for 8 min and the reaction quenched by 2x volume of cold acetonitrile containing internal standard (50 nM carbamazepine). The plate was centrifuged for 10 min (4000 rcf, 4 °C) and the resulting supernatant diluted 1:1 with water for LC/MS/MS analysis. A 12 point standard curve of substrate metabolites over the range of 0.98 nM to 2000 nM.
(§3) Samples were analyzed via electrospray ionization (ESI) on an AB Sciex API-4000 (Foster City, CA) triple-quadrupole instrument that was coupled with Shimadzu LC-10AD pumps (Columbia, MD) and a Leap Technologies CTC PAL autosampler (Carrboro, NC). Analytes were separated by gradient elution using a Fortis C18 3.0 × 50 mm, 3 μm column (Fortis Technologies Ltd., Cheshire, UK) thermostated at 40 °C. […]
(§4) The IC50 values for each compound were obtained for the individual CYP enzymes by quantitating the inhibition of metabolite formation for each probe substrate. A 0 μM compound condition (or control) was set to 100% enzymatic activity and the effect of increasing test compound concentrations on enzymatic activity could then be calculated from the % of control activity. […]

2D6 = biological target: T2, 2D6 (Homo sapiens, UniProt P10635); test: inhibition of cytochrome P450 enzymes; type: in vitro ADME; conditions: human liver microsomes; read-out: CYP450 2D6 inhibition
T2 construct: 0.1 mg/mL human liver microsomes (HLM) and Substrate Mix; from tissue; host or cells: human liver microsomes
T2 sequence (P10635 whole entry): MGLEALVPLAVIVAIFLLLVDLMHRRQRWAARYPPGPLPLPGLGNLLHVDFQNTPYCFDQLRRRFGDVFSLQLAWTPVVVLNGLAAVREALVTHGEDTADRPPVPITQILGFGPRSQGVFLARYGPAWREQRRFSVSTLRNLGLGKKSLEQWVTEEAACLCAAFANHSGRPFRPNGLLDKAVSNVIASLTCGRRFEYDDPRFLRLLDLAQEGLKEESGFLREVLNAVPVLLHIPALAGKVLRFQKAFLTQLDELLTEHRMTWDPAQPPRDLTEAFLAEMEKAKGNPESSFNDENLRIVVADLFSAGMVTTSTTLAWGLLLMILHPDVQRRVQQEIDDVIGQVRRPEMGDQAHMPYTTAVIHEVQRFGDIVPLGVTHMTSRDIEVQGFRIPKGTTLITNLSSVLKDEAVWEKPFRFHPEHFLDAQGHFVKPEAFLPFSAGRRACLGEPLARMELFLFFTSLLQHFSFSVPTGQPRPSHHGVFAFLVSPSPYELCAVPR
Description: as §1, §2, §3, §4

2C9 = biological target: T3, 2C9 (Homo sapiens, UniProt P11712); test: inhibition of cytochrome P450 enzymes; type: in vitro ADME; conditions: human liver microsomes; read-out: CYP450 2C9 inhibition
T3 construct: 0.1 mg/mL human liver microsomes (HLM) and Substrate Mix; from tissue; host or cells: human liver microsomes
T3 sequence (P11712 whole entry): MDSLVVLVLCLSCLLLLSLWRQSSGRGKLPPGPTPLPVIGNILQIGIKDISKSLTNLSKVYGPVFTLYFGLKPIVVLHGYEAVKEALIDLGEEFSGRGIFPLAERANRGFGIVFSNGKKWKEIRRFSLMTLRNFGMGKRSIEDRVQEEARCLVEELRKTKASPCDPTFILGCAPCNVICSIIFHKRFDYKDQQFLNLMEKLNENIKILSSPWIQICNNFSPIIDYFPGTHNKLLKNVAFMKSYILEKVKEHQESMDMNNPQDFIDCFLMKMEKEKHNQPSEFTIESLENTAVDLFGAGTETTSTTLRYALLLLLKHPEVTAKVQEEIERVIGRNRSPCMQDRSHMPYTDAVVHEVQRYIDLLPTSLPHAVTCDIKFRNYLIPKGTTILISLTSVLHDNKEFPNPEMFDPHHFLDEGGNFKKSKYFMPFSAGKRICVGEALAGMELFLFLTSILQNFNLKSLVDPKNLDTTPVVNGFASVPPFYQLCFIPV
Description: as §1, §2, §3, §4

Sprague–Dawley rats = test: amphetamine-induced hyperlocomotion (rat); type: in vivo
Description: Here, administration of 0.75 mg/kg IP of amphetamine induced a robust hyperlocomotive state in rats (>1200 beam breaks), which was dose-dependently reversed by oral administration of 19d. […] Considering the longer time point for exposure and the results, mGlu1 has sufficient target coverage and PK/PD is established for this paradigm.[24]
Figure 7 Rat amphetamine-induced hyperlocomotion and reversal by VU6024578 (19d). Amphetamine (0.75 mg/kg IP) induced robust hyperlocomotion, which was dose-dependently reversed by oral administration (10% tween 80) of 19d. TEXT PRINTED IN THE PICTURE: VU6024578: Mean % reversal: -0.2 ± 13.0 (1 mg/kg p.o. + Amphetamine 0.75 mg/kg s.c.); Mean % reversal: 31.6 ± 10.2 (3 mg/kg p.o. + Amphetamine 0.75 mg/kg s.c.); Mean % reversal: 31.4 ± 4.3 (5.6 mg/kg p.o. + Amphetamine 0.75 mg/kg s.c.); Mean % reversal: 41.8 ± 7.1 (10 mg/kg p.o. + Amphetamine 0.75 mg/kg s.c.)
Adult male Sprague–Dawley rats placed into the activity chambers (Med Associates). Thirty minutes after placement in the chambers, the rats were administered VU6024578 (1–10 mg/kg p.o.) or vehicle. Sixty minutes later the rats were injected with amphetamine (0.75 mg/kg s.c. One ml/kg) or vehicle (saline) and placed back in the activity chambers for 90 min. The data for the studies were analyzed by a between-group 2 way analysis of variance for compound dose and time. Each dose group was compared with the vehicle control group. The calculations were performed and graphed using GraphPad Prism (version 4.03, GraphPad, La Jolla, CA). The AUC was analyzed by a 1-way ANOVA with a Dunnett’s post hoc test.

[1] = test system: Ca2+ channel (L, verapamil site) (phenylalkylamine); test: Eurofins radioligand binding panel; design: species or system rat; conditions: antagonist radioligand
Description: (§5) Table S1. Eurofins Lead Profiling Screen Data
(§6) This is a radioligand binding panel of 80 targets including GPCRs, ion channels, transporters and nuclear hormones. Biochemical assay results are presented as the percent inhibition of specific […]
(§7) Results showing an inhibition or stimulation higher than 50% are considered to represent significant effect and are highlighted

SKCa channel = test: Eurofins radioligand binding panel; design: species or system rat; conditions: antagonist radioligand
Description: as §5, §6, §7

GABA (non-selective) = test: Eurofins radioligand binding panel; design: species or system rat; conditions: agonist radioligand
Description: as §5, §6, §7

KV channel = test: Eurofins radioligand binding panel; design: species or system rat; conditions: antagonist radioligand
Description: as §5, §6, §7

P2Y = test: Eurofins radioligand binding panel; design: species or system rat; conditions: agonist radioligand
Description: as §5, §6, §7

PCP = test: Eurofins radioligand binding panel; design: species or system rat; conditions: antagonist radioligand
Description: as §5, §6, §7

5-HT2B = 5-HT2B (Homo sapiens, UniProt P41595); test: Eurofins radioligand binding panel; design: Eurofins; conditions: agonist radioligand
Chain of 5-HT2B (P41595 whole entry): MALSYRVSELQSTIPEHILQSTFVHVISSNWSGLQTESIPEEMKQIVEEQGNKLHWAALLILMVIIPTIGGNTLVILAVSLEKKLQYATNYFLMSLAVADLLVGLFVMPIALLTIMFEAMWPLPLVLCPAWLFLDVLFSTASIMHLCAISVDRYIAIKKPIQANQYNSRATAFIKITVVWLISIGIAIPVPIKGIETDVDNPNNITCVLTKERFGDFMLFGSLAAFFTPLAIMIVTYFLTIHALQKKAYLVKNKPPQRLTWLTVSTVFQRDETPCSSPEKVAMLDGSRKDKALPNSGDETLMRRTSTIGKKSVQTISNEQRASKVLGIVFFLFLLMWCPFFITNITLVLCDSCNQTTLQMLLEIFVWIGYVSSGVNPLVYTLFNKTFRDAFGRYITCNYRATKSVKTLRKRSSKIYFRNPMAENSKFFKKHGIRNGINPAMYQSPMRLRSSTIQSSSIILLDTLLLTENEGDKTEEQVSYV
Description: as §5, §6, §7

Compound `Cn1nc(-c2ccnn2C)cc1CNC(=O)c1cc(-c2ccco2)ccc1Cl` [Compound 19d, 2-Chloro-N-((1,2′-dimethyl-1H,2’H-[3,3′-bipyrazol]-5-yl)methyl)-5-(furan-2-yl)benzamide] has an IC50 (1A2) of 17 µM, an IC50 (2D6) of 28 µM and an IC50 (2C9) of 6.4 µM. The “Mean % reversal of AHL” value (Sprague–Dawley rats; 1 mg/kg p.o.) was -0.2 ± 13.0%, the “Mean % reversal of AHL” value (Sprague–Dawley rats; 3 mg/kg p.o.) was 31.6 ± 10.2% and the “Mean % reversal of AHL” value (Sprague–Dawley rats; 5.6 mg/kg p.o.) was 31.4 ± 4.3%. The “Mean % reversal of AHL” value (Sprague–Dawley rats; 10 mg/kg p.o.) was 41.8 ± 7.1%, the “minimum effective dose (MED), AHL” value (Sprague–Dawley rats; p.o.) was 3 mg/kg and the “% Inhibition at 10 µM” value [1] was -16%. The “% Inhibition at 10 µM” value (SKCa channel) was 2%, the “% Inhibition at 10 µM” value (GABA (non-selective)) was -3% and the “% Inhibition at 10 µM” value (KV channel) was 8%. The “% Inhibition at 10 µM” value (P2Y) was 23%, the “% Inhibition at 10 µM” value (PCP) was 2% and the inhibition at 10 µM (5-HT2B) was 67%.
